Experimental data taken from patent US9686984B2, “Macrocyclic picolinamides as fungicides” (DOW AGROSCIENCES LLC, priority 2014, dated 2017).
Like-named read-outs stand apart in the source and are kept apart here.

Columns and labels:
[1] = tested on: Puccinia triticina; test: Wheat Brown Rust (PUCCRT) disease control on wheat seedlings; type: in vivo; details: for pest or weed control at 121.5 g/ha: Low Volume (121.5 g/H); for pest or weed control at 100 µg/mL: High Volume (100 ppm)
Protocol: Technical grades of materials were dissolved in acetone, which were then mixed with nine volumes of water containing 110 ppm Triton X-100. The fungicide solutions were applied onto wheat seedlings using an automated booth sprayer to run-off. All sprayed plants were allowed to air dry prior to further handling. All fungicides were evaluated using the aforementioned method for their activity vs. all target diseases, unless stated otherwise. Wheat leaf blotch and brown rust activity were also evaluated using track spray applications, in which case the fungicides were formulated as EC formulations, containing 0.1% Trycol 5941 in the spray solutions. Wheat plants (variety Yuma) were grown from seed in a greenhouse in 50% mineral soil/50% soil-less Metro mix until the first leaf was fully emerged, with 7-10 seedlings per pot. These plants were inoculated with an aqueous spore suspension of Septoria tritici either prior to or after fungicide treatments. After inoculation the plants were kept in 100% relative humidity (one day in a dark dew chamber followed by two to three days in a lighted dew chamber at 20° C.) to permit spores to germinate and infect the leaf. The plants were then transferred to a greenhouse set at 20° C. for disease to develop. When disease symptoms were fully expressed on the 1st leaves of untreated plants, infection levels were assessed on a scale of 0 to 100 percent disease severity. Percent disease control was calculated using the ratio of disease severity on treated plants relative to untreated plants. Example B: Evaluation of Fungicidal Activity: Wheat Brown Rust (Puccinia triticina; Synonym: Puccinia recondita f. sp. tritici; Bayer code PUCCRT) Wheat plants (variety Yuma) were grown from seed in a greenhouse in 50% mineral soil/50% soil-less Metro mix until the first leaf was fully emerged, with 7-10 seedlings per pot. These plants were inoculated with an aqueous spore suspension of Puccinia triticina either prior to or after fungicide treatments. After inoculation the plants were kept in a dark dew room at 22° C. with 100% relative humidity overnight to permit spores to germinate and infect the leaf. The plants were then transferred to a greenhouse set at 24° C. for disease to develop. Fungicide formulation, application and disease assessment followed the procedures as described in the Example A.

[2] = tested on: Zymoseptoria tritici; test: Leaf Blotch of Wheat (SEPTTR) disease control on wheat seedlings; type: in vivo; details: for pest or weed control at 121.5 g/ha: Low Volume (121.5 g/H); for pest or weed control at 100 µg/mL: High Volume (100 ppm)
Protocol: Example A: Evaluation of Fungicidal Activity: Leaf Blotch of Wheat (Mycosphaerella graminicola; Anamorph: Zymoseptoria tritici; Bayer code […]) Technical grades of materials were dissolved in acetone, which were then mixed with nine volumes of water containing 110 ppm Triton X-100. The fungicide solutions were applied onto wheat seedlings using an automated booth sprayer to run-off. All sprayed plants were allowed to air dry prior to further handling. All fungicides were evaluated using the aforementioned method for their activity vs. all target diseases, unless stated otherwise. Wheat leaf blotch and brown rust activity were also evaluated using track spray applications, in which case the fungicides were formulated as EC formulations, containing 0.1% Trycol 5941 in the spray solutions. Wheat plants (variety Yuma) were grown from seed in a greenhouse in 50% mineral soil/50% soil-less Metro mix until the first leaf was fully emerged, with 7-10 seedlings per pot. These plants were inoculated with an aqueous spore suspension of Septoria tritici either prior to or after fungicide treatments. After inoculation the plants were kept in 100% relative humidity (one day in a dark dew chamber followed by two to three days in a lighted dew chamber at 20° C.) to permit spores to germinate and infect the leaf. The plants were then transferred to a greenhouse set at 20° C. for disease to develop. When disease symptoms were fully expressed on the 1st leaves of untreated plants, infection levels were assessed on a scale of 0 to 100 percent disease severity. Percent disease control was calculated using the ratio of disease severity on treated plants relative to untreated plants.

[3] = 24 h, 1 Day Protectant, read-out: PUCCRT disease control, 1 DP
[4] = 72 h, 3 Day Curative, read-out: PUCCRT disease control, 3 DC
[5] = 24 h, 1 Day Protectant, read-out: SEPTTR disease control, 1 DP
[6] = 72 h, 3 Day Curative, read-out: SEPTTR disease control, 3 DC

melting point	Compound	pest or weed control at 121.5 g/ha [1, 3]	pest or weed control at 121.5 g/ha [1, 4]	pest or weed control at 121.5 g/ha [2, 5]	pest or weed control at 121.5 g/ha [2, 6]	pest or weed control at 100 µg/mL [1, 3]	pest or weed control at 100 µg/mL [1, 4]	pest or weed control at 100 µg/mL [2, 5]	pest or weed control at 100 µg/mL [2, 6]
110 to 112 °C	CC(C)CC[C@@H]1COCC[C@H](NC(=O)OC(C)(C)C)C(=O)O[C@H]1C [Compound 103]								
41 to 44 °C	CC(C)CC[C@H]1[C@H](C)OC(=O)[C@@H](NC(=O)OC(C)(C)C)CCO[C@@H]1Cc1ccccc1 [Compound 102]								
39 to 44 °C	CC(C)CC[C@H]1[C@H](C)OC(=O)[C@@H](NC(=O)OC(C)(C)C)CCO[C@@H]1CCc1ccc(F)cc1 [Compound 100]								
	COc1ccnc(C(=O)N[C@H]2CCO[C@H](CCc3ccccc3)[C@@H](Cc3ccc(F)cc3)[C@H](C)OC2=O)c1OC(C)=O [Compound 7, 2-(((2R,3S,4S,7S)-3-(4-fluorobenzyl)-4-methyl-6-oxo-2-phenethyl-1,5-dioxonan-7-yl)carbamoyl)-4-methoxypyridin-3-yl acetate]	> 70%	> 70%	> 70%	> 70%				
	CCCC[C@H]1[C@H](C)OC(=O)[C@@H](NC(=O)c2nccc(OC)c2OCOC(=O)COCC)CCO[C@@H]1COc1ccccc1 [Compound 47]	> 70%	> 70%	> 70%	> 70%				
	COc1ccnc(C(=O)N[C@H]2CCO[C@H](Cc3ccccc3)[C@@H](Cc3ccccc3)[C@H](C)OC2=O)c1OCOC(=O)C(C)C [Compound 37, ((2-(((2R,3S,4S,7S)-2,3-dibenzyl-4-methyl-6-oxo-1,5-dioxonan-7-yl)carbamoyl)-4-methoxypyridin-3-yl)oxy)methyl isobutyrate]	> 70%	> 70%	> 70%	> 70%				
	CCOCC(=O)OCOc1c(OC)ccnc1C(=O)N[C@H]1CCO[C@H](Cc2ccccc2)[C@@H](Cc2ccccc2)[C@H](C)OC1=O [Compound 44]	> 70%	> 70%	> 70%	> 70%				
	COc1ccnc(C(=O)N[C@H]2CCOC[C@@H](Cc3ccccc3)[C@H](C)OC2=O)c1OCOC(=O)C(C)C [Compound 36]	> 70%	> 70%	> 70%	< 70%				
	CCCC[C@H]1[C@H](C)OC(=O)[C@@H](NC(=O)c2nccc(OC)c2OCOC(=O)COCC)CCO[C@@H]1CCc1ccccc1 [Compound 45]	> 70%	> 70%	> 70%	> 70%				
	CCCC[C@H]1[C@H](C)OC(=O)[C@@H](NC(=O)c2nccc(OC)c2OC(C)=O)CCO[C@@H]1CCc1ccccc1 [Compound 13]	> 70%	> 70%	> 70%	> 70%				
	COCC[C@H]1OCC[C@H](NC(=O)c2nccc(OC)c2OCOC(C)=O)C(=O)O[C@@H](C)[C@@H]1Cc1ccccc1 [Compound 20]	> 70%	> 70%	> 70%	> 70%				
	CCCC[C@H]1[C@H](C)OC(=O)[C@@H](NC(=O)c2nccc(OC)c2OCOC(=O)C(C)C)CCO[C@@H]1COc1ccccc1 [Compound 41]	> 70%	> 70%	> 70%	> 70%				
	COc1ccnc(C(=O)N[C@H]2CCO[C@H](CCc3ccc(F)cc3)[C@@H](CCC(C)C)[C@H](C)OC2=O)c1OC(C)=O [Compound 10]	> 70%	> 70%	> 70%	> 70%				
195 to 197 °C	CCCC[C@H]1[C@H](C)OC(=O)[C@@H](N)CCO[C@@H]1COc1ccccc1.Cl								
	COc1ccnc(C(=O)N[C@H]2CCO[C@H](Cc3ccccc3)[C@@H](CCC(C)C)[C@H](C)OC2=O)c1OC(C)=O [Compound 12]	> 70%	> 70%	> 70%	> 70%				
	CCCC[C@H]1[C@H](C)OC(=O)[C@@H](NC(=O)c2nccc(OC)c2OCOC(C)=O)CCO[C@@H]1CC [Compound 34]	> 70%	> 70%	< 70%	< 70%				
	CCCC[C@H]1[C@H](C)OC(=O)[C@@H](NC(=O)c2nccc(OC)c2OC(C)=O)CCO[C@@H]1CC [Compound 14]	> 70%	> 70%	> 70%	< 70%				
	COc1ccnc(C(=O)N[C@H]2CCOC[C@@H](Cc3ccccc3)[C@H](C)OC2=O)c1OCOC(C)=O [Compound 16]	> 70%	> 70%	< 70%	< 70%				
	COc1ccnc(C(=O)N[C@H]2CCO[C@H](CCc3ccccc3)[C@@H](CCC(C)C)[C@H](C)OC2=O)c1O [Compound 59]					> 70%	> 70%	> 70%	> 70%
	COc1ccnc(C(=O)N[C@H]2CCO[C@H](CCc3ccccc3)[C@@H](CCC(C)C)[C@H](C)OC2=O)c1OC(C)=O [Compound 9]	> 70%	> 70%	> 70%	> 70%				
	COc1ccnc(C(=O)N[C@H]2CCOC[C@@H](CCC(C)C)[C@H](C)OC2=O)c1OCOC(C)=O [Compound 30]	> 70%	> 70%	> 70%	> 70%				
	CC[C@H]1OCC[C@H](NC(=O)c2nccc(OC)c2O)C(=O)O[C@@H](C)[C@@H]1Cc1ccc(F)cc1 [Compound 55]					> 70%	> 70%	> 70%	> 70%
49 to 53 °C	COc1ccnc(C(=O)N[C@H]2CCOC[C@@H](CCC(C)C)[C@H](C)OC2=O)c1O [Compound 63]								
	COc1ccnc(C(=O)N[C@H]2CCOC[C@@H](Cc3ccc(F)cc3)[C@H](C)OC2=O)c1OCOC(C)=O [Compound 21]	> 70%	> 70%	> 70%	< 70%				
	COc1ccnc(C(=O)N[C@H]2CCO[C@H](CCc3ccccc3)[C@@H](Cc3ccc(F)cc3)[C@H](C)OC2=O)c1O [Compound 57, N-((2R,3S,4S,7S)-3-(4-fluorobenzyl)-4-methyl-6-oxo-2-phenethyl-1,5-dioxonan-7-yl)-3-hydroxy-4-methoxypicolinamide]					> 70%	< 70%	> 70%	> 70%
	COc1ccnc(C(=O)N[C@H]2CCO[C@H](Cc3ccccc3)[C@@H](Cc3ccccc3)[C@H](C)OC2=O)c1OCOC(C)=O [Compound 19]	> 70%	> 70%	> 70%	> 70%				
